Measurements reported in patent US12502362B2, “Inhibitors of nucleotidyltransferase superfamily enzymes as antibiotics” (priority 2017, dated 2025).
≈ marks a conversion by molar mass, not a printed value. Where two headings read alike, the source gives them in different places.

Tests used:
E. coli (ATCC 35218) = assay: microbe, parasite or virus in culture; assay type: cell-based; conditions: for MIC80 E. coli: E. coli ATCC 35218
Experimental: (§1) To further characterize the compounds, the minimal inhibitory concentration (MIC80) were determined for selected compounds. MIC80 is defined as the compound concentration at which ≥80% bacterial growth is inhibited compare to untreated controls. Meanwhile, for the selected compounds, cytotoxicity assays (CC50) were performed on a HepG2-derived hepatoblastoma cell line (HEPDES19). […] For CC50 evaluation, soluble tetrazolium dye (MTS) was used to measure mitochondrial toxicity in a human hepatoblastoma cell line (18). The bacteria (E. coli, S. saprophyticus and A. baumannii) used in MIC80 measurements were the same as that in the primary screening, but for Staphylococcus, S. aureus is used primarily because it is a common pathogen in Staphylococcaeae family, while S. saprophyticus is part of the normal human flora.

S. aureus (ATCC 29213) = assay: MIC80 on S. aureus; assay type: cell-based, Staphylococcus aureus; conditions: ≥80% growth inhibition; for MIC80: Staphylococcus aureus, ATCC 29213 / MSSA, read-out: MIC80 S. aureus, S. aureus ATCC 29213 (MSSA); for MIC80 S. aureus: S. aureus ATCC 29213 (MSSA)
Experimental: as §1

[1] = system: S. aureus and/or S. saprophyticus; assay: MIC80 on S. aureus and/or S. saprophyticus; assay type: cell-based; conditions: read-out: MIC80 against S. aureus and/or S. saprophyticus
Experimental: as §1, with “(HEPDES19). […] For the MIC80 measurements, a 1.5 fold dilution series of the compounds was prepared in Mueller-Hinton II broth.” for “(HEPDES19).”, “flora. S. aureus (ATCC 29213) is methicillin-sensitive Staphylococcus aureus (MSSA) strain and it was used as a model strain to measure the MIC80.” for “flora.”

[2] = Cytotoxicity assay (CC50), MTS; assay type: cell-based, human; conditions: human, HepG2-derived hepatoblastoma cell line (HEPDES19), HEPDES19 cells
Experimental: as §1

[3] = system: HepG2-derived hepatoblastoma cell line (HEPDES19); assay: Cytotoxicity assay (CC50), MTS; assay type: cell-based, human; conditions: HEPDES19 cells
Experimental: as §1

[4] = system: Staphylococcus epidermidis; assay type: cell-based
Experimental: (§2) It was also tested whether compounds #63 and #285 can inhibit other coagulase-negative Staphylococcus (CNS) including S. epidermidis, S. hominis, etc. […].

Staphylococcus hominis = assay type: cell-based
Experimental: as §2

[5] = system: S. aureus ATCC strains and MRSA; assay type: cell-based, Staphylococcus aureus
[6] = system: Coagulase negative Staphylococcus; assay: Antibiotic susceptibility of coagulase negative Staphylococcus strains; assay type: cell-based
[7] = Se1 (Staphylococcus epidermidis)
[8] = Se2 (Staphylococcus epidermidis)
[9] = Se3 (Staphylococcus epidermidis)
[10] = Se4 (Staphylococcus epidermidis)
[11] = Se5 (Staphylococcus epidermidis)
[12] = CNS1 (Coagulase negative Staphylococcus)
[13] = CNS2 (Coagulase negative Staphylococcus)

| SMILES | CC50 [3] | MIC80 S. aureus (S. aureus (ATCC 29213)) | MIC80 E. coli (E. coli (ATCC 35218)) | Antibiotic susceptibility [4, 7] | Antibiotic susceptibility [4, 8] | Antibiotic susceptibility [4, 9] | Antibiotic susceptibility [4, 10] | Antibiotic susceptibility [4, 11] | Antibiotic susceptibility (Staphylococcus hominis; Sh1 (Staphylococcus hominis)) | Antibiotic susceptibility (Staphylococcus hominis; Sh2 (Staphylococcus hominis)) | Antibiotic susceptibility (Staphylococcus hominis; Sh3 (Staphylococcus hominis)) | Antibiotic susceptibility ([5]; S. aureus ATCC 25923) | Antibiotic susceptibility ([5]; S. aureus ATCC 29213) | Antibiotic susceptibility ([5]; S. aureus ATCC BAA 976) | Antibiotic susceptibility ([5]; S. aureus ATCC BAA 977) | Antibiotic susceptibility ([5]; S. aureus ATCC BAA 1026) | Antibiotic susceptibility ([5]; Sa1 (MRSA)) | Antibiotic susceptibility ([5]; Sa2 (MRSA)) | Antibiotic susceptibility ([5]; Sa3 (MRSA)) | Antibiotic susceptibility ([5]; Sa6 (MRSA)) | further results |
| --- | --- | --- | --- | --- | --- | --- | --- | --- | --- | --- | --- | --- | --- | --- | --- | --- | --- | --- | --- | --- | --- |
| Cc1cccc(C(=O)Oc2cccccc2=O)c1 [Compound 283] | ≥ 100 µM |  |  |  |  |  |  |  |  |  |  |  |  |  |  |  |  |  |  |  | MIC80 (E. coli (ATCC 35218); Escherichia coli, ATCC35218, read-out: MIC80 E. coli, E. coli ATCC 35218): > 100 µM; MIC80 (S. aureus (ATCC 29213)): 15.4 µM (≈ 3.7 µg/mL); MIC80 [1]: < 20 µM; CC50 [2]: > 50 µM |
| CC(=O)c1c(C)cc(O)c(=O)c(O)c1-c1ccc2ccccc2c1 [Compound 332] | 38 µM | 19.8 µM (≈ 6.34 µg/mL) |  |  |  |  |  |  |  |  |  |  |  |  |  |  |  |  |  |  |  |
| O=C(O)c1cn(Cc2cccc3ccccc23)c2ccccc2c1=O [Compound 432] |  |  |  |  |  |  |  |  |  |  |  |  |  |  |  |  |  |  |  |  | MIC80 (S. aureus (ATCC 29213)): 13.2 µM (≈ 4.35 µg/mL); MIC80 [1]: < 20 µM |
| O=C(Cc1ccccc1)Sc1cccccc1=O [Compound 680] | > 100 µM | 29.6 µM (≈ 7.59 µg/mL) | 19.8 µM (≈ 5.08 µg/mL) |  |  |  |  |  |  |  |  |  |  |  |  |  |  |  |  |  |  |
| O=C(Sc1cccccc1=O)c1ccc(C(F)(F)F)cc1 [Compound 682] | 82.9 µM | 19.8 µM (≈ 6.14 µg/mL) | 66.7 µM (≈ 20.7 µg/mL) |  |  |  |  |  |  |  |  |  |  |  |  |  |  |  |  |  |  |
| Cc1ccc(S(=O)(=O)Oc2cc(C(C)C)cccc2=O)cc1 [Compound 688] | 27.5 µM | 11.6 µM (≈ 3.69 µg/mL) | >100 µM |  |  |  |  |  |  |  |  |  |  |  |  |  |  |  |  |  |  |
| CN(C)[C@@H]1C(O)=C(C(N)=O)C(=O)[C@@]2(O)C(O)=C3C(=O)c4c(O)cccc4[C@@](C)(O)[C@H]3C[C@@H]12 [TET, Tetracycline] |  |  |  | S | S | S | S | S | R | R | S | S | S | S | S | S | S | S | S | S | Antibiotic susceptibility ([5]; Sa5 (MRSA)): S; Antibiotic susceptibility ([5]; Sa7 (MRSA)): S; Antibiotic susceptibility ([5]; Sa9 (MRSA)): S; Antibiotic susceptibility ([5]; Sa11 (MRSA)): S; Antibiotic susceptibility ([5]; Sa12 (MRSA)): S; Antibiotic susceptibility ([5]; Sa14 (MRSA)): S; Antibiotic susceptibility ([5]; Sa15 (MRSA)): S; Antibiotic susceptibility ([5]; Sa16 (MRSA)): S; Antibiotic susceptibility ([5]; Sa17 (MRSA)): S; Antibiotic susceptibility ([5]; Sa18 (MRSA)): S; Antibiotic susceptibility ([5]; Sa19 (MRSA)): S; Antibiotic susceptibility ([5]; Sa20 (MRSA)): S; Antibiotic susceptibility ([5]; Sa21 (MRSA)): S; Antibiotic susceptibility ([5]; Sa22 (MRSA)): S; Antibiotic susceptibility ([5]; Sa23 (MRSA)): S; Antibiotic susceptibility [6, 12]: S; Antibiotic susceptibility [6, 13]: S |
| CN(C)c1cc(NC(=O)CNC(C)(C)C)c(O)c2c1C[C@H]1C[C@H]3[C@H](N(C)C)C(O)=C(C(N)=O)C(=O)[C@@]3(O)C(O)=C1C2=O [TGC, Tigecycline] |  |  |  | S | S | S | S | S | S | S | S | S | S | S | S | S | S | S | S | S | Antibiotic susceptibility ([5]; Sa7 (MRSA)): S; Antibiotic susceptibility ([5]; Sa9 (MRSA)): S; Antibiotic susceptibility ([5]; Sa11 (MRSA)): S; Antibiotic susceptibility ([5]; Sa12 (MRSA)): S; Antibiotic susceptibility ([5]; Sa14 (MRSA)): S; Antibiotic susceptibility ([5]; Sa15 (MRSA)): S; Antibiotic susceptibility ([5]; Sa16 (MRSA)): S; Antibiotic susceptibility ([5]; Sa17 (MRSA)): S; Antibiotic susceptibility ([5]; Sa18 (MRSA)): S; Antibiotic susceptibility ([5]; Sa19 (MRSA)): S; Antibiotic susceptibility ([5]; Sa20 (MRSA)): S; Antibiotic susceptibility ([5]; Sa21 (MRSA)): S; Antibiotic susceptibility ([5]; Sa22 (MRSA)): S; Antibiotic susceptibility ([5]; Sa23 (MRSA)): S; Antibiotic susceptibility [6, 12]: S; Antibiotic susceptibility [6, 13]: S |
| CN[C@H](CC(C)C)C(=O)N[C@H]1C(=O)N[C@@H](CC(N)=O)C(=O)N[C@H]2C(=O)N[C@H]3C(=O)N[C@H](C(=O)N[C@H](C(=O)O)c4cc(O)cc(O)c4-c4cc3ccc4O)[C@H](O)c3ccc(c(Cl)c3)Oc3cc2cc(c3O[C@@H]2O[C@H](CO)[C@@H](O)[C@H](O)[C@H]2O[C@H]2C[C@](C)(N)[C@H](O)[C@H](C)O2)Oc2ccc(cc2Cl)[C@H]1O [VAN, vancomycin] |  |  |  | S | S | S | S | S | S | S | S | S | S | S | S | S | S | S | S | S | Antibiotic susceptibility ([5]; Sa5 (MRSA)): S; Antibiotic susceptibility ([5]; Sa7 (MRSA)): S; Antibiotic susceptibility ([5]; Sa8 (MRSA)): S; Antibiotic susceptibility ([5]; Sa9 (MRSA)): S; Antibiotic susceptibility ([5]; Sa10 (MRSA)): S; Antibiotic susceptibility ([5]; Sa11 (MRSA)): S; Antibiotic susceptibility ([5]; Sa12 (MRSA)): S; Antibiotic susceptibility ([5]; Sa14 (MRSA)): S; Antibiotic susceptibility ([5]; Sa15 (MRSA)): S; Antibiotic susceptibility ([5]; Sa16 (MRSA)): S; Antibiotic susceptibility ([5]; Sa17 (MRSA)): S; Antibiotic susceptibility ([5]; Sa18 (MRSA)): S; Antibiotic susceptibility ([5]; Sa19 (MRSA)): S; Antibiotic susceptibility ([5]; Sa20 (MRSA)): S; Antibiotic susceptibility ([5]; Sa21 (MRSA)): S; Antibiotic susceptibility ([5]; Sa22 (MRSA)): S; Antibiotic susceptibility ([5]; Sa23 (MRSA)): S; Antibiotic susceptibility [6, 12]: S; Antibiotic susceptibility [6, 13]: S |
